In publication PMC3709979 (PLoS ONE, 2013):
Several values for one entry are separate records, joined by “and”; a condition that tells them apart may be missing. Equal entries are not always repeated. Entries after “also recorded” stand apart in the source; their conditions may differ. Where two headings read alike, the source gives them in different places.

How the values were obtained:
human recombinant ERβ [1] = biological target: T1, human recombinant ERβ (Homo sapiens, UniProt Q92731); set-up: purchased Invitrogen (Grand Island, NY); method as in J. Agric. Food Chem. 2005, 53, 6246–6253; settings: read-out: IC50 ERβ; isolated compounds; ref J. Agric. Food Chem. 2005, 53, 6246–6253; cited from earlier work
[2] = test system: estrogen responsive element (ERE)-luciferase in MCF-7 cells; test: ERE-luciferase induction in MCF-7 cells; format: cell-based; settings: 24 h; for ERE-luciferase induction in MCF-7 cells (in words): isolated compounds tested at 0.1 µM and 1 µM
Method: The Dual-Luciferase Reporter Assay System protocol from Promega (Madison, WI) was used to evaluate the activation of ERs through interaction with ERE at the promoter of estrogen responsive genes, resulting in the expression of the fused luciferase reporter. Briefly, MCF-7 cells grown in phenol-red free medium for 48 h, were trypsinized and re-suspended in serum-free medium at 1×10^7 cells/mL followed by a 10 min incubation at room temperature with pERE (3 µg/mL) obtained from Dr. V. C. Jordan, Northwestern University, and pRL-TK (Promega) (1 µg/mL) in a 4 mm gap cuvette before electroporation at 950 µF and 250 V using the Gene Pulser Xcell (BioRad Laboratories, Hercules, CA). Transfected cells were diluted in serum containing medium and plated in 24-well plates (2×10^5 cells/well). After 24 h, the cells were washed with PBS and treated with two concentrations of the crude extracts (2 µg/mL and 10 µg/mL) and two concentrations of the isolated compounds (0.1 µM and 1 µM), for an additional 24 h. […] Cell lysates (20 µL) were placed in white Costar 96-well plates, before the injection of Luciferase Assay reagent (100 µL) followed by a 12 s read by a FLUOstar OPTIMA (BMG Lab Tech, Offenburg, Germany). To quench the firefly luciferase expression and activation of the renilla expression, Stop & Glo reagent (100 µL) was injected followed by a 12 s read. In order to exclude the errors in transfection efficiency, average read out of the luciferase activity was normalized to the average associated pRL-TK read outs (renilla activity). The results were converted into fold induction by normalizing to DMSO.

[3] = test system: estrogen-responsive alkaline phosphatase in Ishikawa cells; test: Induction of estrogen-responsive alkaline phosphatase (AP) in Ishikawa cells; settings: 96 h; for EC50: Homo sapiens, Ishikawa
Method: Ishikawa cells (5×10^4 cells/well) were pre-incubated in 96 well plates in estrogen-free medium for 24 h. Test samples dissolved in DMSO, were added at different concentrations and the DMSO concentration was kept lower than 0.1%. […] Plates were incubated at 37°C for 96 h. […] The maximum slope of the kinetic curve for every experiment well was calculated.

human recombinant ERβ [4] = biological target: T1, human recombinant ERβ; test: biochemical
Method: (§1) To correct for non-specific binding, a control containing all the added components except for the hot mix was considered. The incubation was carried out at room temperature for 2 h before 100 µL of 50% hydroxyapatite slurry (HAPS) was added. The tubes were incubated on ice for 15 min with vortexing every 5 min. The appropriate ER wash buffer was added (1 mL), and the tubes were vortexed before centrifuging at 10000×g for 5 min. The supernatant was discarded, and this wash step was repeated three times. The HAPS pellet containing the ligand-receptor complex was re-suspended in 200 µL of ethanol and transferred to scintillation vials. An additional 200 µL of ethanol was used to rinse the centrifuge tube.

Tff1 mRNA in T47D cells = test: Tff1 mRNA induction in T47D cells (qRT-PCR); format: cell-based; settings: 8-PN 100 nM, LigF 5 µM, LigC 5 µM, 6 h, relative to DMSO
Method: Quantitative real-time polymerase chain reaction (qRT-PCR) was used to examine the modulation of the Tff1 induction following treatment of T47D cells with the extracts and the related compounds. Experiments were performed four independent times in triplicates. T47D cells (4×10^4 cells/mL) were preincubated in estrogen-free media for 72 h. […] Total RNA was isolated using the TRIzol Plus RNA purification kit (Invitrogen) and quantitated by UV analysis at 260 nm. cDNA synthesis was performed using qScript cDNA synthesis kit (Quanta Biosceiences) in a total volume of […], containing 4 µL qScript reaction mixture (5X), 1 µL qScript RT, 10 µL nuclease-free water, and 5 µL of RNA sample. The reaction was carried out for 5 min at 22°C, followed by 42°C for 30 min and a 5 min incubation step at 85°C. The PCR and subsequent analyses were performed using the ABI StepOne Plus RT-PCR system (Applied Biosystems). Quantitation was performed using the TaqMan technology of Applied Biosystems. Tff1 was evaluated using a predeveloped gene expression primer/probe set (Applied Biosystems' Assay on Demand). Briefly, the PCR reaction mixture was prepared in a total volume of 20 µL, containing 1 µL 20X TagMan Gene Expression Assay, 10 µL 2X TaqMan Gene Expression Master Mix, 4 µL cDNA template, and 5 µL RNase-free water. The reaction mixture was incubated at 50°C for 2 min followed by 10 min at 95°C. Polymerase chain reactions were performed in triplicate and consisted of 40 cycles with 15 s denaturing step at 95°C and 1 min annealing/extending step at 60°C each. The fluorescence signal was measured during the last 30 s of the annealing/extension phase. Following analysis, a fluorescence threshold value was set and threshold cycle (Ct) values were determined. […] The final results were expressed as a fold induction, where the levels of Tff1 observed in the DMSO-treated samples was defined as one.

Ishikawa cells = test: Cytotoxicity in cell culture assays; format: cell-based; settings: AP assay, reduction in the estrogenic response
Description: The Ishikawa cell line was provided by Dr. R. B. Hochberg (Yale University, New Haven, CT) and was maintained in Dulbecco's Modified Eagle Medium (DMEM/F12) containing 1% sodium pyruvate, 1% nonessential amino acids (NEAA), 1% glutamax-1, 0.05% insulin, and 10% heat-inactivated FBS [32], [33], [34]. […] Two days before treating the cells, the medium was replaced with phenol red-free DMEM/F12 medium containing charcoal/dextran-stripped FBS and supplements. […] However, alkaline phosphatase was not inducible in ECC1 cells obtained from ATCC. Despite this controversy, we will keep the conventional name, Ishikawa, for this cell line throughout this paper. The MCF-7 cell line was purchased from ATCC. […] Two days prior to treating the cells, the medium was replaced with phenol red-free RPMI 1640 medium containing charcoal/dextran-stripped FBS with acetone-washed activated charcoal (100mg/mL) at 4°C for 30 min and centrifuged at 4000 rpm for 15 min at 4°C. This step was repeated in triplicate. Extracts and compounds were not toxic to cells at the applied concentrations, under these experimental conditions. DMSO concentrations for all cell culture assays were below 0.1%.

[5] = Isomerization of isoliquiritigenin to liquiritigenin under bioassay conditions (LC-MS/LC-UV); format: physicochemical
Method: To evaluate this conversion and better define the compounds responsible for the observed estrogenic activity, LC-MS monitoring of the isomerization of these active principles in the cell-based assays was performed in parallel to every bioassay. One set of plates was considered for time 0, when there was no treatment and another set was considered for the final harvesting day for every experimental condition. The media exposed to cells were collected and extracted by adding sodium acetate buffer (100 mM, pH 5), followed by liquid-liquid extraction by water-saturated ethyl acetate.

ERα [6] = biological target: T2, ERα (Homo sapiens, UniProt P03372); test: biochemical
T2 sequence (P03372 1-595): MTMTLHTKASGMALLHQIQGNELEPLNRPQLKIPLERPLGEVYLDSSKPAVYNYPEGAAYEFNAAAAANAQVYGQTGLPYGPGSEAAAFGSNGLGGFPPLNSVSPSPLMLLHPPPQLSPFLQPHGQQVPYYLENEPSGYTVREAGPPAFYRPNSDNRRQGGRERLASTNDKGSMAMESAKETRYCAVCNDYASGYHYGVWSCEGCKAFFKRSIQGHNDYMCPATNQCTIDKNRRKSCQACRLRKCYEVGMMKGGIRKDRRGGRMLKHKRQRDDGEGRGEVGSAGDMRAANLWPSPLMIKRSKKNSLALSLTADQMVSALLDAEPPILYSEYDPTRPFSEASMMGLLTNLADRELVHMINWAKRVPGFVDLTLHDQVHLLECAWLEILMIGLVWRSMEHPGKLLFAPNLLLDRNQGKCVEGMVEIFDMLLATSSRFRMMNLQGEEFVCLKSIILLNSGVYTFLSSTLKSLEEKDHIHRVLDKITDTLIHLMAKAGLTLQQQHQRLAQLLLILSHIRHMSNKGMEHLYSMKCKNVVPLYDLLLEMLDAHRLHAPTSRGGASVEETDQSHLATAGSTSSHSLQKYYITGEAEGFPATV
Method: as §1

ERα [7] = biological target: T2, ERα; test: Pulsed ultrafiltration LC-MS screening for ERα ligands; format: binding; set-up: purchased Invitrogen (Grand Island, NY); settings: crude MeOH extract 150 µg/ml, 1 h room temperature, denatured ER control
Method: A screening assay based on ultrafiltration mass spectrometry was used to identify the ligands of ER present in licorice crude extracts. Briefly, 150 µg/ml of the methanol crude extract was incubated for 1 h at room temperature with 50 pmol of ERα or ERβ in binding buffer consisting of 50 mM Tris-HCl (pH 7.5), 10% glycerol, 50 mM KCl, and 1 mM ethylenediaminetetraacetic acid (EDTA) in a total volume of 50 µL. Identical control incubations in which denatured ER was substituted for active ER was used to correct for nonspecific binding of compounds to the ultrafiltration membrane and holder. After incubation, each mixture was filtered through a Microcon (Millipore, Bedford, MA) YM-30 centrifugal filter containing a regenerated cellulose ultrafiltration membrane with a 30000 MW cutoff and washed three times with 200 µL aliquots of ammonium acetate buffer (pH 7.5) at 4°C to remove the unbound compounds. The bound ligands were released by adding 400 µL of methanol/water (90∶10; v/v) followed by centrifugation at 10000×g for 10 min. […] Aliquots (10 µL) were analyzed using LC-MS, which consisted of a reverse phase separation on a Shimadzu (Kyoto, Japan) Shim-Pack XR-ODS III C18 (1.6 µm, 2.0 mm ×50 mm) column and mass spectrometric analysis on a Shimadzu LCMS- IT-TOF mass spectrometer. […]

ERα [8] = biological target: T2, ERα
Method: as §1

[9] = read-out: AP induction Ishikawa cells EC50

T1 sequence (Q92731 whole entry): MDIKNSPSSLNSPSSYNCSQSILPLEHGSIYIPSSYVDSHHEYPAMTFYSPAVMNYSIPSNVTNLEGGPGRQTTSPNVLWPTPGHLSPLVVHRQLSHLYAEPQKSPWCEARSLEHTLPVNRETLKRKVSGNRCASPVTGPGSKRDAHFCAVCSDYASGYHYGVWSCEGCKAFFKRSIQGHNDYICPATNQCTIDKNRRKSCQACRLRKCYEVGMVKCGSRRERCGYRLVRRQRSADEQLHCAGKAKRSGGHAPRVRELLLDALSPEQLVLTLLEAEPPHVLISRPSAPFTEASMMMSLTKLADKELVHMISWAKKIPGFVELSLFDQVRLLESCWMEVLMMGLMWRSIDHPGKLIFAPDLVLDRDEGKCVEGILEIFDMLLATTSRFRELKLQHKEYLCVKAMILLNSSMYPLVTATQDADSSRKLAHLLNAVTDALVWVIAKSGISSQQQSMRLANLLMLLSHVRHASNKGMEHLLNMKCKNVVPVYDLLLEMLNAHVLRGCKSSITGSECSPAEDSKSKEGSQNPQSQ

CC(C)=CCc1c(O)cc(O)c2c1O[C@H](c1ccc(O)cc1)CC2=O [8-PN, 8-prenylnaringenin]
IC50 (human recombinant ERβ [1]): 1700 ± 100 nM | ERE-luciferase induction in MCF-7 cells (in words) [2]: showed induction of ERE-luciferase | EC50 ([3]; read-out: AP induction Ishikawa cells EC50, as given in text, 96 h): 6.6 nM | EC50 ([3]; read-out: AP induction Ishikawa cells EC50, isolated compounds, 96 h, n = 9): 6.65 ± 1.4 nM

C[C@]12CC[C@@H]3c4ccc(O)cc4CC[C@H]3[C@@H]1CC[C@@H]2O [17β-estradiol, reference compound]
EC50 [3, 9]: 0.19 ± 0.05 nM

O=C(/C=C/c1ccc(O)cc1)c1ccc(O)cc1O [LigC, isoliquiritigenin]
IC50 (human recombinant ERβ [4]): 7800 ± 100 nM | Tff1 mRNA induction in T47D cells (Tff1 mRNA in T47D cells): induced Tff1, significantly | concentrations with cytotoxic effects (Ishikawa cells): above 7.5 µM | isomerization of LigC to LigF ([5]; ER binding buffer, 2 h at room temperature, LC-UV): did not show any isomerization of LigC to LigF; also recorded: did not show a conversion of LigC to LigF | isomerization of LigC to LigF ([5]; cell media of AP assay, 96 h with Ishikawa cells at 37°C, LC-MS): significant reduction in the LigC content and a corresponding increase in LigF formation; also recorded: mostly converted to LigF | isomerization of LigC to LigF ([5]; cell media of mRNA induction assay, 6 h with T47D cells at 37°C, LC-MS): did not show a significant formation of LigF from LigC; also recorded: the conversion was limited | EC50 [3, 9]: 2700 ± 200 nM | IC50 (ERα [6]): 16000 ± 1000 nM

O=C1C[C@@H](c2ccc(O)cc2)Oc2cc(O)ccc21 [LigF, liquiritigenin]
Tff1 mRNA induction in T47D cells (Tff1 mRNA in T47D cells): lower than that of 8-PN (0.1 µM), but the difference was not significant | binding to ERα in PUF-MS screening (ERα [7]): bound to ERα and ERβ | fold induction at 0.1 µM ([2]; Homo sapiens, MCF7, isolated compounds at 100 nM, DMSO set to 1): 2.1 ± 0.4 | ERE-luciferase induction in MCF-7 cells (in words) [2]: showed induction of ERE-luciferase | EC50 [3, 9]: 3400 ± 400 nM | Maximum AP fold induction Ishikawa cells ([3]; maximum efficacy): 83 fold and 83.1±3.4 fold | IC50 ERα (ERα [8]): very weak affinity for ERα | IC50 (ERα [6]): > 200000 nM

COc1cc(O)c(CC=C(C)C)c(O)c1C(=O)/C=C/c1ccc(O)cc1 [XH, xanthohumol]
Tff1 mRNA induction in T47D cells (Tff1 mRNA in T47D cells): no Tff1 activity | ERE-luciferase induction in MCF-7 cells (in words) [2]: did not show any induction of ERE-luciferase | AP induction Ishikawa cells EC50 ([3]; isolated compounds, n = 9): inactive
